# Data reported in ChEMBL document CHEMBL1130613, “Design and synthesis of dipeptidyl alpha',beta'-epoxy ketones, potent irreversible inhibitors of the cysteine protease cruzain” (Bioorg Med Chem Lett, 1998).
# Molecular target: Cruzipain (Trypanosoma cruzi) (UniProt P25779)
# Experiment: Second order rate constant for inhibition of cruzain
# Chain of Cruzipain (Trypanosoma cruzi) (P25779 123-467 limits assumed): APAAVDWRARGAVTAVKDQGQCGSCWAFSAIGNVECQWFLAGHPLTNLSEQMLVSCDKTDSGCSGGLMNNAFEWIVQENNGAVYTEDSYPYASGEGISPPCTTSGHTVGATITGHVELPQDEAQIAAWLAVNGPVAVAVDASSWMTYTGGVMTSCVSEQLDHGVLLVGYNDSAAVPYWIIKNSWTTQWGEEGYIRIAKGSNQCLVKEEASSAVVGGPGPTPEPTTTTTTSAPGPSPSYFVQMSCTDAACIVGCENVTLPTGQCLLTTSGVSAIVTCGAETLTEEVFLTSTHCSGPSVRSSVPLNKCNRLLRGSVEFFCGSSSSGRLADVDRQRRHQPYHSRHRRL
row,Compound,K inact/Ki
1,"CC(C)CCNC(=O)[C@H](CC(C)C)NC(=O)[C@H]1OC1C(=O)O (single isomer, unassigned)",70600 M⁻¹ s⁻¹
2,C[C@H](NC(=O)[C@H](Cc1ccccc1)NC(=O)OCc1ccccc1)C(=O)[C@@H]1CO1,128000 M⁻¹ s⁻¹
3,O=C(N[C@@H](Cc1ccccc1)C(=O)N[C@@H](CCc1ccccc1)C(=O)[C@@H]1CO1)OCc1ccccc1,330000 M⁻¹ s⁻¹
